Test systems include CAKI-1 renal; HCT-116 colon; HOP-62 NSCLC; NCI-H460 lung; OVCAR-8 ovarian; RPMI-8226 leukemia; SF-539 CNS; SK-OV-3 ovarian; UACC-62 melanoma; NCI-H522 lung.
Assay in all cases: NCI anticancer screen, dose series, 48 h

Results on 5 compounds are retold here after PubChem BioAssay (NCI).

Molecules are shown by their SMILES.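 Each compound was tested at five concentrations against cells in 96-well plates for 48 hours. GI50 = concentration required for 50% inhibition of growth. TGI: total growth inhibition.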

For `OC1CCN2Cc3ccccc3N=C12` (stereo not given), the TGI in the test with CAKI-1 renal, in the test on HCT-116 colon, in the test with HOP-62 NSCLC, with NCI-H460 lung, in the test with OVCAR-8 ovarian and in the test on RPMI-8226 leukemia was over 100 µM throughout. For the same compound, the TGI in the test with SF-539 CNS, with SK-OV-3 ovarian and in the test with UACC-62 melanoma was over 100 µM in each case.
For `CC1OC1C(=O)P(=O)(O)O` (stereo not given), the TGI in the test on CAKI-1 renal, with HCT-116 colon, with HOP-62 NSCLC, in the test on NCI-H460 lung, with NCI-H522 lung and in the test on OVCAR-8 ovarian was over 100 µM each time. For the same compound, the TGI in the test with RPMI-8226 leukemia, in the test with SF-539 CNS, with SK-OV-3 ovarian and with UACC-62 melanoma was over 100 µM each time.
As for `COc1ccccc1C1C(C#N)=C(N)SC(N)=C1C#N`, the GI50 in the test with CAKI-1 renal is 7.71 µM; in the test on HCT-116 colon, 43.8 µM; in the test on HOP-62 NSCLC, over 100 µM; in the test with NCI-H460 lung it was 49.8 µM; in the test on NCI-H522 lung it was 29.9 µM; with OVCAR-8 ovarian it was 90.4 µM. In addition, the GI50 with RPMI-8226 leukemia is 12.3 µM; in the test on SF-539 CNS, 90.7 µM; with SK-OV-3 ovarian, over 100 µM. Besides, the TGI was over 100 µM in the test with CAKI-1 renal; over 100 µM with HCT-116 colon; over 100 µM in the test with HOP-62 NSCLC; over 100 µM with NCI-H460 lung; 76.2 µM in the test with NCI-H522 lung; over 100 µM in the test on OVCAR-8 ovarian. Moreover, the TGI with RPMI-8226 leukemia was 32.9 µM; with SF-539 CNS, over 100 µM; in the test on SK-OV-3 ovarian, over 100 µM.
With `NCC(=O)N[C@H]1c2ccsc2/C(=N/O)[C@H]1O`, the TGI in the test with CAKI-1 renal, in the test on HCT-116 colon, in the test on HOP-62 NSCLC, in the test on NCI-H460 lung, with OVCAR-8 ovarian and in the test with SF-539 CNS was over 100 µM each time. Also, the TGI in the test with SK-OV-3 ovarian and in the test with UACC-62 melanoma was over 100 µM in each case.
For `Cc1ccccc1NC(=O)C(=O)C(C1OC(=O)c2ccccc21)[N+](=O)[O-]` (stereo not given), the TGI in the test on CAKI-1 renal, in the test with HCT-116 colon, in the test on HOP-62 NSCLC, with NCI-H460 lung, in the test on NCI-H522 lung and in the test with OVCAR-8 ovarian was over 100 µM each time. Further, the TGI in the test with RPMI-8226 leukemia, with SF-539 CNS, in the test on SK-OV-3 ovarian and with UACC-62 melanoma was over 100 µM each time.
